Tests used:
mRNA level of tau = experiment: Tau mRNA level by q-PCR in HEK293-hTau cells; type: cell-based, human; settings: 20 μM for 24 h
Description: Total RNA was isolated by using Trizol™ kit (Invitrogen, Carlsbad, CA, USA) and the reverse transcription reagent kit (RR037, Takara) was used to obtain cDNA. RT-PCR was performed using a StepOnePlus Real-Time PCR Detection System (AB Applied Biosystems, 272001262, Cossell Biotechnology). The PCR system contains 2 μL forward and reverse primers, 10 μL SYBR Green PCR master mixes, 1 μL cDNA and 7 μL diethylpyrocarbonate (DEPC H2O). The primer of MAPT-forward was CAGCTCCGGCACCAACAG and the MAPT-reverse was […]. The primer of β-actin-forward was […] and β-actin-reverse was […].

human tau (hTau) = molecular target: T1, human tau (hTau) (Homo sapiens, UniProt P10636); experiment: Tau clearance in HEK293-hTau cells by Western blotting; type: cell-based
T1 construct: expressed in transfected cells
Description: SH-SY5Y human neuroblastoma cells were cultured in 90% DME/F-12 medium (HyClone, SH30023.01) with 10% fetal bovine serum (FBS) (Biological Industries, 04-001-1ACS) and penicillin (100 U/mL)/ streptomycin (100 μg/mL) in a 37 °C incubator with humidified atmosphere of 5% CO2. Human embryonic kidney 293 cells (HEK293) or HEK293 with stable expression of wild-type full-length human tau (termed as HEK293-hTau) were cultured in 90% DMEM/High Glucose medium (HyClone, SH30022.01) containing 10% FBS and 200 μg/mL G418 (ThermoFisher Scientific, 10131027), in a humidified atmosphere of 5% CO2 at 37 °C. Neofect (DNA transfection reagent, TF20121201) was used for plasmids transfection. The cells were placed onto 6-well or 12-well plates. Plasmids (EGFP-hTau or 3xFlag-hTau or the vector), neofect and Opti-MEM medium (Gibco, 31985-070) were made into a mixture in a ratio of 1 μg: 1 μL : 100 μL and then added into each well of the plate. To inhibit proteasome activity, HEK293-hTau cells were cultured with DMEM/High medium containing 20 μM C004019 with or without 10 μM MG132, or the same volume of vehicle (DMSO) for 24 h at 37 °C. To induce tau hyperphosphorylation, SH-SY5Y cells were cultured with DME/F-12 medium containing 10 μM C004019 with or without 1 μM GFX and 1 μM WO for 24 h at 37 °C.
The cells or hippocampal/cortex tissues were homogenized for ~ 30 min on ice in buffer [50 mM Tris·HCl pH 7.4-7.5, 100 mM NaCl, 1% (vol/vol) Triton X-100, 5 mM EDTA, 1:100 PMSF, 1:1,000 protease inhibitor cocktail containing 4-(2-Aminoethyl)-benzenesulfonyl fluoride hydrochloride, aprotinin, bestatin, leupeptin, E-64, and pepstatin A stored at 4 °C], and then centrifuged at 12,000 × g at 4 °C for 20 min. The supernatant was collected and the protein levels were analyzed using bicinchoninic acid (BCA, KF016, Sigma-Aldrich) by following the manufacturer's instruction (served as soluble protein). The pellet was further incubated with 8% (wt/vol) SDS buffer at 4 °C and then treated by ultrasonic wave to reach a complete resuspension. […] Immunoreactive bands were quantitatively analyzed by Image J2x software.

HEK293-hTau cells = experiment: CCK-8 cell viability assay; type: cell-based, human; settings: 0.01, 0.1, 1, 10, 20 and 100 μM, 24 h
Description: Cell viability was assessed using CCK-8 kit by following the manufacturer's instructions. The cells were seeded at a concentration of 5,000 cells per well in a 96-well plate and then treated with various concentrations of C004019 (0, 0.01, 0.1, 1, 10, 20 and 100 μM) for 24 h. After the treatments, the culture medium was removed, and 10 μL of CCK-8 in 90 μL of medium was added. After incubating for 30 min at 37 °C, the absorbance was measured at 450 nm using a microplate reader (BioTek, 250058).

amyloid-β plaque = experiment: Congo red staining of amyloid-β plaque in 3xTg-AD mice; type: in vivo, mouse; settings: 9.5 m-old 3xTg-AD mice; subcutaneous 3 mg/kg every 6 days, 5 times

T1 sequence (P10636 1-441 isoform P10636-8): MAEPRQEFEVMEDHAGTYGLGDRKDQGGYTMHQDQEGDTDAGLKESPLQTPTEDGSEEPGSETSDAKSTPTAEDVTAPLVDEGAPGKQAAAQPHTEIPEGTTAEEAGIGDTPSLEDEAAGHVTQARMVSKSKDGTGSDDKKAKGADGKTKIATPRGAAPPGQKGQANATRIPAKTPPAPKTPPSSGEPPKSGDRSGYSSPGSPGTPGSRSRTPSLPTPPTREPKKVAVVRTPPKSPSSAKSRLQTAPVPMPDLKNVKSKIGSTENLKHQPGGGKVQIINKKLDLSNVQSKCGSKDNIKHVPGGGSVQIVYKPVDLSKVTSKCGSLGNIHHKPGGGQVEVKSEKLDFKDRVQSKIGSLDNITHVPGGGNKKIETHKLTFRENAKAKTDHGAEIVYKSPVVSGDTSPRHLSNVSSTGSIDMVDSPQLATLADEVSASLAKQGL

Compound: CC(=O)N1CCCN(c2nc(NCCc3cccs3)nc(N(C)CC(=O)NCCOCCOCCOCC(=O)N[C@H](C(=O)N3C[C@H](O)C[C@H]3C(=O)NCc3ccc(-c4scnc4C)cc3)C(C)(C)C)n2)CC1 [C004019]
- mRNA level of tau (mRNA level of tau): did not significantly change the mRNA level of tau
- total tau (Tau5) and p-tau level (human tau (hTau); HEK293-hTau cells, Western blotting): concentration-dependent reduction
- DC50 (human tau (hTau); cultured cells, read-out: DC50 (tau degrader)): ~5 nM
- cell viability (CCK8 assay) (HEK293-hTau cells): did not induce any significant change in cell viability
- amyloid-β plaque (Congo red staining) (amyloid-β plaque): No significant effects on amyloid-β plaque

— PMC8039949, “A novel small-molecule PROTAC selectively promotes tau clearance to improve cognitive functions in Alzheimer-like models” (Theranostics, 2021)
